Read-outs that look alike come from different tables or passages of the source. Blank lines part the entries; values can stand above or below the molecule they belong to. Where a SMILES comes first, the peptide text is derived from it. Where no end group is shown, it is not given here. [ ]: non-standard residue; d: D form. pGlu = O=C1CC[C@@H](C(=O)O)N1
Key:
[1] = molecular target: Thyrotropin-releasing hormone receptor 2 (TRHR-2), rat, expressed in HEK293s cells from pCDNA3-TRHR2 (rat); assay: radioligand binding on whole cells, 293S/TRH-R clonal cell line
[2] = molecular target: Thyrotropin-releasing hormone receptor 2 (TRHR-2), rat, expressed in HEK293s cells from pCDNA3-TRHR2 (rat); assay: saturation radioligand binding on whole HEK 293 cells expressing TRHR-2
[3] = molecular target: TRH receptor of GH4C1 cells (TRHR-1) (UniProt Q01717); assay: radioligand binding on whole GH4C1 cells
TRHR-2 [4] = molecular target: T1, TRHR-2 (Rattus norvegicus, UniProt A6IZR3); assay: 3H-TRH radioligand binding on whole HEK293s cells stably expressing TRHR-2
T1 construct: expressed in transfected cells; host or cells: HEK293s
T1 sequence (A6IZR3 1-352): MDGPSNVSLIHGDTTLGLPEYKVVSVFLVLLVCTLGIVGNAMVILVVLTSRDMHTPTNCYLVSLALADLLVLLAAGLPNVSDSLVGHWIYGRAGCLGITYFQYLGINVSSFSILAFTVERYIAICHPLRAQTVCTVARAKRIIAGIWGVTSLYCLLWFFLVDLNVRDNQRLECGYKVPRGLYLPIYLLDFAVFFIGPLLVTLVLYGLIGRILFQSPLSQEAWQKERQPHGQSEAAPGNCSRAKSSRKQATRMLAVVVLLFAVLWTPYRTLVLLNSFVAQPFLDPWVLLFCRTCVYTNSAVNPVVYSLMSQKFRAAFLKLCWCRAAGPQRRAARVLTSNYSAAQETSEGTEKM
Description: (§1) The TRH binding assay was performed on whole cells. Transfected cells were washed twice with HBSS (Gibco BRL, cat# 14065) supplemented with 0.05% bovine serum albumin, detached by gentle pipetting and aliquoted in eppendorf tubes for binding assays. One twentieth of the cells collected from a confluent 75 cm^2 flask was used per assay point. The binding reaction was performed in a total volume of […] of binding buffer (HBSS+0.05% bovine serum albumin) containing the transfected cells and 10 nM of^3H-thyrotropin releasing hormone (Peninsula Laboratories Inc, cat # 7501) with or without unlabelled competitors. Non-specific binding was estimated in the presence of 1 mM of unlabelled TRH. Reactions were carried out for 60 min at room temperature and reactions were stopped by filtration through Unifilters-96 GF/B filters (Canberra Packard cat # 6005177) using the 96-well Filtermat 196 filtration system from Canberra Packard. The filters were washed 3 times with 1 ml of washing buffer (50 mM Tris(HCl), 3 mM MgCl2, pH 7.0). They were then dried at 55° C. for one hour and 50 μl of mScint-20 (Canberra Packard) was added per well. Filters were counted with the Topcount microplate counter from Canberra Packard.
HEK293s cells in a 10 cm petri dish were transfected with […] pCDNA3-TRHR2. After 14 days of selection in culture medium containing 600 μg/ml G418, resistant colonies were pooled. Then, single clones were purified by 2 rounds of limited dilution in 96 well plates. Clones of HEK293s cells expressing different levels of TRHR-2 receptor were selected using a 3H-TRH binding assay.

TRHR-2 [5] = molecular target: T1, TRHR-2; assay: Intracellular calcium mobilization (Fura 2) in HEK293/TRHR-2 cells; assay type: cell-based
Description: Intracellular calcium concentration changes where determined by fluorescence measurement of the intracellular, calcium-sensitive indicator Fura 2. Briefly, HEK293s cells were grown on glass cover slips in culture medium at 37° C., 5% CO2 and diluted 10 fold every 3 days. The cells were loaded at room temperature for 30 min using […] of is Fura 2/AM in simplified Grace's solution (SGS buffer) physiological buffer (NBS: 135 mM NaCl, 5 mM KCl, 1.8 mM CaCl2, 1.2 mM MgSO4, 10 mM HEPES, pH 7.4). Fura 2/AM is a membrane permeant, calcium-insensitive ester of Fura 2. After three washes in Fura-2 /AM-free buffer, the cells were incubated for 15 to 30 min in SGNBS at room temperature to insure full hydrolysis of the Fura 2 ester. The calcium-sensitive, hydrolyzed form of Fura 2 remains trapped intracellularly. Experiments were conducted at room temperature on single cells or small groups of 3 to 7 cells in a coverslip holder fitted to the stage of an IMT-2 inverted microscope equipped with a 40×-epifluorescence objective (UVFL40, 0.85, Olympus Optical Co, Tokyo) and coupled to a PTI ratio fluorescence system (Photon Technology International, London, Ontario, Canada). Sample illumination was provided by a 75 W xenon light source attached to a filter-based light chopper unit which provided 340 and 380 nm excitation wavelength alternating at a frequency of 5 Hz. The emitted light was passed through an adjustable rectangular aperture followed by a 505 nm interference filter (10-nm bandwidth), and its intensity was recorded by a photon counter detector. Dye leakage, as determined by loss of fluorescence over a period of 30 min, was undetectable at both excitation wavelengths.
The ratio of the fluorescence intensity at the two excitation wavelengths can be converted into an estimate of ionized intracellular calcium concentration by use of the formula: [Ca^2+]i=Kd×(Fmin/Fmax)×(R-Rmin)/(Rmax-R), where R, Rmin, and Rmax are the fluorescence ratios recorded during the experiment (R) and during calibration tests on unlysed cells using […] ionomycin in SGNBS (Rmax), followed by 10 mM EGTA addition at pH 8.2 (Rmin). Fmin and Fmax are the corresponding fluorescence intensities for the 380 nm excitation and Kd is the Fura-2 dissociation constant at room temperature (135 nM).
Small volumes (10-50 μl) of drugs (hormones, agonists, neurotransmitters, TRH, bradykinin) from prediluted stock solutions prepared in the appropriate buffer solutions were directly added to the experimental chamber.

[6] = I.C.V. injection, on a molar basis (Boschi et al. 1983); cited from earlier work
[7] = molecular target: T2, TRH receptor (TRHR-1) of GH4C1 cells (Rattus norvegicus, UniProt Q01717); assay: 3H-TRH radioligand binding on GH4C1 cells
T2 construct: endogenous in cells; host or cells: GH4C1
T2 sequence (Q01717 1-412): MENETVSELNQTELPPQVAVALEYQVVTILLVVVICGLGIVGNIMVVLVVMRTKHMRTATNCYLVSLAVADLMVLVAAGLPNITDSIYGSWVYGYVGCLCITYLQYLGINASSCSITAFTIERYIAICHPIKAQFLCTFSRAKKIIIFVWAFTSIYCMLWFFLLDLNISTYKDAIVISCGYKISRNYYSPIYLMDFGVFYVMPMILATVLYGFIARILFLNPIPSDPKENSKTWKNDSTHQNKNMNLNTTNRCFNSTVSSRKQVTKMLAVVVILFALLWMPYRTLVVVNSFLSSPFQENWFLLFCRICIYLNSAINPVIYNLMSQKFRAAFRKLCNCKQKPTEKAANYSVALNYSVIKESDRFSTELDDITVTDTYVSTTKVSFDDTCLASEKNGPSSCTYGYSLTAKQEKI

[8] = molecular target: Thyrotropin-releasing hormone receptor 2 (TRHR-2), rat, expressed in HEK293s cells from pCDNA3-TRHR2 (rat); assay: competition with 3H-TRH tracer on whole cells, 293S/TRH-R clonal cell line
[9] = molecular target: T3, Thyrotropin-releasing hormone receptor 2 (TRHR-2), rat, expressed in HEK293s cells from pCDNA3-TRHR2 (rat); assay: 3H-TRH competition on cells expressing TRHR-2 (assay not restated in the sentence)
T3 construct: 352 amino acid open reading frame cloned from a rat brain stem-spinal cord cDNA library; also called TRH receptor 2; 293S/TRH-R clonal cell line
T3 chain: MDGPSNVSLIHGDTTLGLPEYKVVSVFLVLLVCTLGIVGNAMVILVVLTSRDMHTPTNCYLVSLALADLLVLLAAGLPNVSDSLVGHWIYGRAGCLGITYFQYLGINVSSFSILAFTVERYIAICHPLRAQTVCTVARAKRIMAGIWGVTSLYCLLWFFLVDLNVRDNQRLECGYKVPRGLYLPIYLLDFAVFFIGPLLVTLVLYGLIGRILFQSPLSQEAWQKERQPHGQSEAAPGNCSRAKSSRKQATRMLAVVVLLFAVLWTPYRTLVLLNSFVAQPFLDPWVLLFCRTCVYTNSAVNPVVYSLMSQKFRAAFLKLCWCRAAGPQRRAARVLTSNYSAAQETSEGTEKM
Description: as §1, with “cm²” for “cm^2”, “of ³H-thyrotropin” for “of^3H-thyrotropin”, “MgCl_2,” for “MgCl2,”, “µl” for “μl”
(§2) A binding reaction was performed using HEK 293 cells expressing TRHR-2. […] Various TRH-related peptides were used in competition experiments.

[10] = molecular target: T3, Thyrotropin-releasing hormone receptor …; assay: competition with 3H-TRH tracer on whole cells, 293S/TRH-R clonal cell line
Description: as §1, with “cm²” for “cm^2”, “of ³H-thyrotropin” for “of^3H-thyrotropin”, “MgCl_2,” for “MgCl2,”, “µl” for “μl”
as §2

[11] = 293S/TRH-R clonal cell line, three independent experiments, read-out: IC50
[12] = HEK 293 cells expressing TRHR-2, read-out: IC50 in competition with 3H-TRH as tracer
[13] = nanomolar concentrations of TRH
[14] = GH4C1 cells, three independent experiments

- BMAX [1]: 535 fmol/mg
- Kd [1]: 6.17 nM
- Bmax (fmol/mg proteins) [2]: 430
- Kd [2]: 2.5 nM
- BMAX [3]: 577 fmol/mg
- Kd [3]: 5.32 nM
Molecule: 3H-thyrotropin releasing hormone (tritium-labelled TRH, Peninsula Laboratories) (peptide)

Molecule: NC(=O)[C@@H]1CCCN1C(=O)[C@H](Cc1cnc[nH]1)NC(=O)[C@@H]1CCC(=O)N1 [TRH, pyroglutamic acid-histidine-proline-amide]
- IC50 (TRHR-2 [4]; [11]): 8.39 ± 2.31 nM
- IC50 (TRHR-2 [4]; [12]): 8.3 nM
- need of extracellular calcium for the transient rise in [Ca++]i (TRHR-2 [5]): did not require the presence of extracellular calcium
- change of intracellular calcium concentration (TRHR-2 [5]; [13]): marked transient increase in the intracellular calcium concentration
- time to peak of [Ca++]i (TRHR-2 [5]; [13]): about 1 second
- time until baseline [Ca++]i was attained (TRHR-2 [5]; [13]): about 1 minute
- analgesia relative to morphine [6]: twice as great
- IC50 [7, 14]: 5.33 ± 2.81 nM

- IC50 (TRHR-2 [4]; [12]): 2.2 nM
- IC50 [7, 14]: 0.43 ± 0.27 nM
Molecule: Cn1cnc(C[C@H](NC(=O)[C@@H]2CCC(=O)N2)C(=O)N2CCC[C@H]2C(N)=O)c1 [pGlu-3-methyl-His-Pro-amide]

- IC50 (TRHR-2 [4]; [11]): > 10000 nM
- IC50 (TRHR-2 [4]; [12]): > 10000 nM
- IC50 [7, 14]: > 10000 nM
Molecule: NC(=O)[C@@H]1CCCN1C(=O)[C@H](CCC(=O)O)NC(=O)[C@@H]1CCC(=O)N1 [pGlu-Glu-Pro-amide] ([pGlu]-Glu-Pro-NH2)

- IC50 (TRHR-2 [4]; [11]): 641 ± 75.2 nM
- IC50 (TRHR-2 [4]; [12]): 640 nM
- Ki (TRHR-2 [4]; read-out: Ki value to the TRHR-2 receptor): 640 nM
- binding to GH4C1 cells [7]: does not show any binding
- IC50 [7, 14]: > 10000 nM
Molecule: O=C(O)CNC(=O)[C@@H]1CCCN1C(=O)[C@H](Cc1c[nH]cn1)NC(=O)[C@@H]1CCC(=O)N1 [pGlu-His-Pro-Gly] ([pGlu]HPG-OH; C-terminus assumed)

- IC50 [8]: 8.39 nM
Molecule: Thyrotropin-releasing hormone (TRH), pGlu-His-Pro-amide, unlabelled (peptide)

Molecule: ^3H-thyrotropin releasing hormone [^3H-TRH]
- Kd (TRHR-2 [4]; 293S/TRH-R clonal cell line, three independent experiments, read-out: Kd): 6.17 ± 1.51 nM
- Kd (TRHR-2 [4]; HEK 293 cells expressing TRHR-2, saturation binding, read-out: estimated Kd for 3H-TRH): 2.5 nM
- Kd [7, 14]: 5.32 ± 1.63 nM

- IC50 [8]: 2.2 nM
Molecule: pGlu-3-methyl-His-Pro-amide (peptide)

- Ki [9]: 640 nM
- IC50 [10]: 641 nM
B1: pGlu-His-Pro-Gly (peptide)
peptide: [pGlu]HPG
notes: TRH-related peptide with a modified C-terminus

Reference: patent US6441133B1, “Thyrotropin-releasing hormone receptor 2(TRHR-2)” (AstraZeneca Canada Inc., priority 1996, dated 2002)
